Reference: patent publication US9980972B2, “Rho kinase inhibitors for use in treating familial amyotrophic lateral sclerosis” (GEORG-AUGUST-UNIVERSITÄT GÖTTINGEN STIFTUNG ÖFFENTLICHEN …, priority 2012, dated 2018)

Columns and labels:
[1] = system: SOD1 G93A mouse model of ALS; assay: Survival (age at death) in SOD1 G93A mouse model of ALS; assay type: in vivo; details: presymptomatic from d50, 10 mg/kg body weight, male and female
Text: High-copy B6SJL-Tg(SOD1*G93A)1Gur/J were obtained from Jackson Labs (Stock Number 002726; Bar Harbor, USA) that had originally been produced by Gurney et al. (Gurney, Pu et al. 1994). The colony was maintained by crossing C57BL/6 males harboring the transgene with wild-type SJL females. To verify presence of the transgene in the F1 progeny, tail biopsies were collected from 14-day-old pups and genotyped using PCR. At the age of 35-45 days mice were moved to the testing facility to acclimate to the new environment with a 12-h light/dark cycle before being assigned to a study.
At 50 days (presymptomatic, d50) or 80 days of age (symptomatic, d80) mice were separated into Fasudil-30 (Fas30)- and Fasudil-100 (Fas100)-Treatment or Vehicle Control (Veh) groups. Prior to any treatment, groups were constituted so as to minimize between-group variability by using the following criteria. Groups were balanced with respect to gender and body weight within gender. In addition, groups were age-matched and littermate-matched. […] The study was observer-blinded.
To reach sufficient CSF levels of Fasudil the inventors administered Fasudil (LC Labs, Woburn, USA; product number F-4660) at a low concentration of […] (Fas30) or at a high concentration of 50 mg (Fas100) in 100 ml drinking water. Control groups received the respective amount of isotonic drinking water termed as vehicle (Veh).
Chronic oral treatment with a low dose of Fasudil (F30) or a high dose of Fasudil (F100) was started either presymptomatically at day 50 or symptomatically at day 80 and continued until death.
Survival. Date and cause of death were recorded for each mouse. For humane reasons, animals are closely monitored and sacrificed as moribund prior to actual death using criteria for severe moribundity. To determine duration of survival reliably and humanely, the moribund state, defined as the inability of mice to right themselves 30 seconds after being placed on a side (a neurological score of 4) was used. The moribund mice were scored as “dead”, and were euthanized using carbon dioxide.
The data were then analyzed using Kaplan-Meier survival fit analysis with the Log-Rank and Wilcoxon tests for statistical significance. Cox proportional hazards analysis was also performed to determine hazard ratios and test for statistical significance of their differences using the Effect Likelihood Chi Square test. Statistical analyses were performed using Statistica 9.1 (StatSoft, Hamburg, Germany). P-values less than 0.05 were taken to be statistically significant.
The criteria to terminate the therapy study (later referred to as time of death) were fulfilled if the animals had reached the terminal neurological scoring or had lost a defined percentage of the maximal body weight. This time point then reflects the survival time of the animals whereas disease duration was measured from onset of disease until time of death.

[2] = system: regenerating axons after optic nerve crush lesion; details: high intravitreal dose 40 μmol/l in comparison to medium dose 400 nmol/l; cited from earlier work

C[C@@H](N)[C@H]1CC[C@H](C(=O)Nc2ccncc2)CC1 [Y-27632]
survival [1]: no significant effects

Cc1cncc2cccc(S(=O)(=O)N3CCCNC[C@@H]3C)c12 [dimethyl-fasudil, (S)-(+)-2-Methyl-1-[(4-methyl-5-isoquinolinyl)sulfonyl]-hexahydro-1H-1,4-diazepine]
number of regenerating axons after optic nerve crush lesion [2]: significantly reduced
